Reference: US10294244B2, “2,3-dihydro-thiazolo[3,2-A]pyridin-5-one derivatives, intermediates thereof, and their use as antibacterial agents” (Quretech Bio AB, priority 2014, dated 2019)

Tested on: C. trachomatis serovar LGV-L2
Test: Inhibition of infectious Chlamydia progenies (C. trachomatis infectivity, reinfection of HeLa cells, IFU count)
Assay type: cell-based
Conditions: infected HeLa cells, MOI 0.3, compound added 1 hpi, 44-48 h, relative to DMSO-treated control; for inhibition at 10 µM: 10 uM compound; for inhibition at 50 µM: 50 uM compound; for inhibition at 2.5 µM: 2.5 uM compound; for inhibition at 100 µM: 100 uM compound
Procedure: Cell Culture, C. trachomatis Infections, and Determination of C. trachomatis Infectivity.
HeLa cells were infected with C. trachomatis serovar LGV-L2 at an MOI of 0.3. At 1 hpi, RPMI media containing the different dilutions of the tested compounds in DMSO were added. The different compounds were dissolved to 20 mM in DMSO and were then diluted with RPMI media to be added at 2.5 to 100 μM. After 44-48 h incubation, the cells were osmotically lysed by the addition of cold sterile distilled water to release infectious EB progeny. 5×SPG was added to equalize the osmotic pressure to a 1×SPG isotonic condition. An equal amount of HBSS (Hanks balanced salt solution) (Gibco/Invitrogen) was added to the lysate (yielding a 1:1 dilution) and 10-fold serial dilutions of the resulting mixture was used to infect fresh HeLa cells. At 1 hpi, the inoculum was replaced with RPMI media and the infection allowed to progress for 44-48 hours before fixation and staining. Fixation was performed by adding methanol for 5 minutes and the cells were subsequently washed with phosphate buffered saline (PBS). The chlamydial inclusions were stained by a primary rabbit anti-Chlamydia antibody (generated in-house) and a secondary donkey anti-rabbit FITC-labelled antibody (Jackson ImmunoResearch). The DNA of the cells and Chlamydia was stained by the addition of DAPI. The stained cells were analyzed by an ArrayScan automated scanner (ArrayScan VTI HCS, Thermo Scientific). Data were presented as the relative numbers of IFUs in treated infections compared to the numbers of IFUs in DMSO-treated control infections.
The compounds of Examples 1-33 were tested for inhibition of infectious Chlamydia progenies at concentrations of 2.5 μM, 10 μM, 50 μM and 100 μM. In this document μM stands for micromolar. The compounds of the present disclosure were considered to have antibacterial activity if they provided 50% or more inhibition of infectious Chlamydia progenies using at least one of the tested concentrations in Table 1.

CC(C)Nc1c(Cc2cccc3ccccc23)cc(=O)n2c1SC[C@H]2C(=O)Nc1ccccc1 [Example 23, Anilino{7-(isopropylamino)-6-[(1-naphthyl)methyl]-4-oxo-1-thia-3a-aza-3-indanyl}formaldehyde]
inhibition at 10 µM: 98% | inhibition at 50 µM: 98%

Cc1ccc(NC(=O)[C@@H]2CSc3c(C4CC4)c(Cc4cccc(C)c4C)cc(=O)n32)cc1 [Example 20, {(3R)-7-Cyclopropyl-4-oxo-6-[(2,3-xylyl)methyl]-1-thia-3a-aza-3-indanyl}(p-toluidino)formaldehyde]
inhibition at 2.5 µM: 99%

Cc1cccc(Cc2cc(=O)n3c(c2N(C)C)SC[C@H]3C(=O)O)c1C [Example 31, (3R)-7-(Dimethylamino)-4-oxo-6-[(2,3-xylyl)methyl]-1-thia-3a-aza-3-indancarboxylic acid]
inhibition at 50 µM: 29% | inhibition at 100 µM: 86%

COc1c(Cc2cccc(C)c2C)cc(=O)n2c1SC[C@H]2C(=O)Nc1ccc(C)cc1 [Example 5, {(3R)-7-Methoxy-4-oxo-6-[(2,3-xylyl)methyl]-1-thia-3a-aza-3-indanyl}(p-toluidino)formaldehyde]
inhibition at 2.5 µM: 100% | inhibition at 10 µM: 100%

O=C(Nc1ccccc1)[C@@H]1CSc2c(O)c(Cc3cccc4ccccc34)cc(=O)n21 [Example 10, {(3R)-7-Hydroxy-6-[(1-naphthyl)methyl]-4-oxo-1-thia-3a-aza-3-indanyl}anilinoformaldehyde]
inhibition at 2.5 µM: 88% | inhibition at 10 µM: 98%

COc1c(COc2cccc(C)c2C)cc(=O)n2c1SC[C@H]2C(=O)Nc1ccc(Cl)cn1 [Example 17, {(3R)-7-Methoxy-4-oxo-6-[(2,3-xylyloxy)methyl]-1-thia-3a-aza-3-indanyl}(5-chloro-2-pyridylamino)formaldehyde]
inhibition at 2.5 µM: 79% | inhibition at 10 µM: 100%

O=C(Nc1ccccc1)[C@@H]1CSc2c(Cl)c(Cc3cccc4ccccc34)cc(=O)n21 [Example 11, {(3R)-7-Chloro-6-[(1-naphthyl)methyl]-4-oxo-1-thia-3a-aza-3-indanyl}anilinoformaldehyde]
inhibition at 2.5 µM: 97% | inhibition at 10 µM: 100%

Cc1cccc(OCc2cc(=O)n3c(c2C2CC2)SCC3C(=O)Nc2ccccc2)c1C (centres unmarked) [Example 19, Anilino{7-cyclopropyl-4-oxo-6-[(2,3-xylylyloxy)methyl]-1-thia-3a-aza-3-indanyl}formaldehyde]
inhibition at 2.5 µM: 100%

CC(=O)Nc1c(Cc2cccc3ccccc23)cc(=O)n2c1SC[C@H]2C(=O)Nc1ccccc1 [Example 26, 1-{3-Anilinocarbonyl-6-[(1-naphthyl)methyl]-4-oxo-1-thia-3a-aza-7-indanylamino}-1-ethanone]
inhibition at 10 µM: 54% | inhibition at 50 µM: 87%

COc1c(Cc2cccc(C)c2C)c(N)c(=O)n2c1SC[C@H]2C(=O)Nc1ccccc1 [Example 13, {(3R)-5-Amino-7-methoxy-4-oxo-6-[(2,3-xylyl)methyl]-1-thia-3a-aza-3-indanyl}anilinoformaldehyde]
inhibition at 2.5 µM: 75% | inhibition at 10 µM: 100%

COc1c(Cc2cccc3ccccc23)cc(=O)n2c1SC[C@H]2C(=O)Nc1ccc(C)cc1 [Example 2, {(3R)-7-Methoxy-6-[(1-naphthyl)methyl]-4-oxo-1-thia-3a-aza-3-indanyl}(p-toluidino)formaldehyde]
inhibition at 2.5 µM: 96% | inhibition at 10 µM: 100%

CN(C)c1c(Cc2cccc3ccccc23)cc(=O)n2c1SC[C@H]2C(=O)Nc1ccccc1 [Example 24, {(3R)-7-(Dimethylamino)-6-[(1-naphthyl)methyl]-4-oxo-1-thia-3a-aza-3-indanyl}anilinoformaldehyde]
inhibition at 10 µM: 98% | inhibition at 50 µM: 99%

CC(C)Nc1c(Cc2cccc3ccccc23)cc(=O)n2c1SC[C@H]2C(=O)O [Example 33, (3R)-7-(Isopropylamino)-6-[(1-naphthyl)methyl]-4-oxo-1-thia-3a-aza-3-indancarboxylic acid]
inhibition at 100 µM: 50%
